Patent publication US20250073249A1, “STEROID COMPOUND, AND PREPARATION METHOD THEREFOR AND USE THEREOF” (SHANGHAI INSTITUTE OF MATERIA MEDICA, CHINESE ACADEMY OF …, priority 2022, published 2025)

Legend:
[1] = test system: 22RV1 prostate cancer cells; assay: Anti-proliferative activity against resistant 22RV1 cells expressing AR-V7; assay type: cell-based; details: Homo sapiens; 22RV1 cells expressing AR-V7 splice variant; read-out: Antiproliferative activity IC50
Experimental: The cells were then digested with trypsin and counted using an automated cell counter to determine cell density. The cell suspension was diluted to the desired density in growth medium. Subsequently, 100 μL of the cell suspension was seeded into 96-well plates and incubated at 37° C. with 5% CO2 for 24 hours. 10 μL of drug solution (including 3-fold serial dilutions of compounds or DMSO) was added to each well, and the plates were incubated at 37° C. with 5% CO2 for 6 days. Prior to measurement, the assay plates were equilibrated to room temperature. 40 μL of CellTiter-Glo® reagent was added to each well. The plates were mixed on an orbital shaker for 2 minutes to induce cell lysis. After incubation at room temperature for 60 minutes to stabilize the luminescence signal, the plates were read on an Envision plate reader.
The experimental procedure was essentially the same as that for LNCaP cells.

AR(F876L) = target: T1, AR(F876L) (Homo sapiens, UniProt P10275, F877L); assay: Mutant AR antagonistic activity test, F876L (reporter gene in HEK293 cells); assay type: cell-based; details: DHT 10 nM, 24 hours, read-out: F876L IC50(nM) 2nd gen AR antagonist resistant mutation
T1 construct: expressed in transfected cells; host or cells: HEK293
T1 sequence (P10275 1-920 F877L): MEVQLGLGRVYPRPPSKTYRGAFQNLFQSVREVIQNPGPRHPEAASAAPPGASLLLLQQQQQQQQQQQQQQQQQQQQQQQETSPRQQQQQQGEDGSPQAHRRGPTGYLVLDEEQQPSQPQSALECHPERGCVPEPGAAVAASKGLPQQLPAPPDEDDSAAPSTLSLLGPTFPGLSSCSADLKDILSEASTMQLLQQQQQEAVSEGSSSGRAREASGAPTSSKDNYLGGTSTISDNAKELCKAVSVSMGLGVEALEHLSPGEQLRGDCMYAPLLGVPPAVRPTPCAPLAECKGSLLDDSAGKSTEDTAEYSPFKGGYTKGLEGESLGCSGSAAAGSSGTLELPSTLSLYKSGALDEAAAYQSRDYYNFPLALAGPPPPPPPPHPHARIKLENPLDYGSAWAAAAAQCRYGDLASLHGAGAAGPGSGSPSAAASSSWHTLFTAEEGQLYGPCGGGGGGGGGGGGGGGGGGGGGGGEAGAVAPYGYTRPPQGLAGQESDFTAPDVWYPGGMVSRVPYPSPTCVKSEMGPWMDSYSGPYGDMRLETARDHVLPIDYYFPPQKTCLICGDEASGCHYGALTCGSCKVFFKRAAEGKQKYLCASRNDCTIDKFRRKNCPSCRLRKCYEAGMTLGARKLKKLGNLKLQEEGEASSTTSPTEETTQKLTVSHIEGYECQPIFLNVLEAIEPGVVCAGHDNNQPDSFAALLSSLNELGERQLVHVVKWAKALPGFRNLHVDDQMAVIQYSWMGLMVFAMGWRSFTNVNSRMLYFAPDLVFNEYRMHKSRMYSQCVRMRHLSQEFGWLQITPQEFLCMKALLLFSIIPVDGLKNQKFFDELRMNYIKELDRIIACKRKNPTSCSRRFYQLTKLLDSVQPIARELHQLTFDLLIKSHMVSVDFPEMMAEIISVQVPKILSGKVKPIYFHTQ
Experimental: HEK293 cells were cultured in DMEM supplemented with 10% FBS and 1% GlutaMax at 37° C. with 5% CO2. The day before transfection, the medium was changed to DMEM containing 10% charcoal-stripped FBS and 1% GlutaMax. […] The cell suspension was diluted with cell seeding solution, and the transfection reagent was added to achieve 500,000 cells/mL. Subsequently, 90 μL of cell suspension was seeded into each well of the assay plate. The next day, compounds were prepared: starting from 8 mM, 3-fold serial dilutions were performed in DMSO for a total of 8 points, then 500 nL was transferred to the compound plate using Echo. The compounds were then diluted with 40 μL of medium to 10× final concentration, and 10 μL was transferred to the cell plate and incubated at 37° C. for 30 minutes. Subsequently, 10 nL of DHT at a final concentration of 10 nM was transferred to each well of the assay plate using TECAN. After 24 hours of incubation, 100 μL of Steady-Glo was added to the assay plate and read on an Envision reader. Data were determined and analyzed using GraphPad Prism.

SMILES	IC50 [1] [nM]	IC50 (AR(F876L)) [nM]
Cc1cn(C2=CCC3C4CC=C5C[C@@H](NC(=O)c6ccncc6)CC[C@]5(C)C4CC[C@]23C)cn1 (stereo partly drawn) [Compound 14, N-((3S,10R,13S)-10,13-dimethyl-17-(4-methyl-1H-imidazol-1-yl)-2,3,4,7,8,9,10,11,12,13,14,15-dodecahydro-1H-cyclopenta[a]phenanthren-3-yl)isonicotinamide]	591	268
Cc1cn(C2=CCC3C4CC=C5C[C@@H](NC(=O)c6ccc(F)cc6)CC[C@]5(C)C4CC[C@]23C)cn1 (stereo partly drawn) [Compound 33, N-((3S,10R,13S)-17-(4-methyl-1H-imidazol-1-yl)-10,13-dimethyl-2,3,4,7,8,9,10,11,12,13,14,15-dodecahydro-1H-cyclopenta[a]phenanthren-3-yl)-4-fluorobenzamide]	624	390
Cc1cn(C2=CCC3C4CC=C5C[C@@H](NC(=O)c6ccc(S(C)(=O)=O)cc6)CC[C@]5(C)C4CC[C@]23C)cn1 (stereo partly drawn) [Compound 35, N-((3S,10R,13S)-17-(4-methyl-1H-imidazol-1-yl)-10,13-dimethyl-2,3,4,7,8,9,10,11,12,13,14,15-dodecahydro-1H-cyclopenta[a]phenanthren-3-yl)-4-(methylsulfonyl)benzamide]	651	326
Cc1cn(C2=CCC3C4CC=C5C[C@@H](NC(=O)c6ccc(F)cc6F)CC[C@]5(C)C4CC[C@]23C)cn1 (stereo partly drawn) [Compound 37, N-((3S,10R,13S)-17-(4-methyl-1H-imidazol-1-yl)-10,13-dimethyl-2,3,4,7,8,9,10,11,12,13,14,15-dodecahydro-1H-cyclopenta[a]phenanthren-3-yl)-2,4-difluorobenzamide]	452	273
